# In patent US7511065B2, “Mixed lineage kinase modulators” (Eli Lilly and Company, priority 2002, dated 2009):
# Counter-ions that a name gives are not always drawn.
# Target: T1, MLK-7 (Homo sapiens, UniProt Q9NYL2)
# T1 construct: GST; His tag; made in house; host or cells: Sf9 insect cells (baculovirus, pVL1392)
# Experiment: In vitro assay of purified MLK-7 kinase activity (33P transfer from ATP to myelin basic protein)
# Assay type: biochemical
# Details: recombinant GST-tagged MLK-7 at 1 nm, 30 uM ATP, 5 uM MBP substrate, 2 hours room temperature; read-out: MLK7 IC50
# Excerpt: In Vitro Assay of Purified Mixed Lineage Kinase 7 (MLK-7) Activity:
# Briefly, recombinant glutathione-s-transferase (GST) tagged MLK-7 is expressed in Sf9 cells using a recombinant baculovirus created using baculovirus transfer vector pVL1392 modified to contain a GST and histidine tag. The recombinant protein is purified over a glutathione column and subsequently used for in vitro kinase assays with myelin basic protein (MBP) as the substrate for phosphorylation. The in vitro kinase reaction is run with recombinant MLK-7 at 1 nm and various concentrations of test compound in a reaction mixture containing 2 mM DTT, 30 uM ATP, 5 mM MgCl2, 5 uM MBP, 4% DMSO, 5 uCi 33P in 44 mM HEPES, (pH 7.4). The reaction is carried out for 2 hours at room temperature and then stopped by the addition of phosphoric acid to 5.5%. The phosphorylated MBP is collected on a filter and radioactivity associated with the membrane measured using a scintillation counter. Inhibitors are identified by the ability to reduce the transfer of radioactive phosphate from ATP to MBP compared to controls run without test compound.
# IC50 values, defined as the concentration of test compound required to decrease the transfer of radioactive phosphate from ATP to MBP by 50%, are then determined. Ki values (which refers to the dissociation constant of an enzyme-antagonist complex and serves as an index of ligand binding) for each respective test compound can also be calculated by application of the Cheng-Prusoff equation as described in Cheng et al., Relationship Between The Inhibition Constant (Ki) and The Concentration of Inhibitor Which Causes 50% Inhibition (IC50) of an Enzymatic Reaction, Biochem. Pharmacol., 22: […]; (1973).
# Representative compounds of the present invention have an IC50 in the MLK-7 kinase assay of ≦10,000 nM Table I (see infra.) provides IC50 data from the afore mentioned MLK-7 kinase assay for a representative sample of the exemplified compounds of the present invention.
row,Compound,IC50 [nM]
1,"O=C(NC1CCS(=O)(=O)C1)c1ccc(-c2ccc3c(-c4c(-c5ccccn5)nn5c4CCC5)ccnc3c2)cc1 (racemic) [Example 129, (rac)-N-(1,1-Dioxo-tetrahydro-1λ^6-thiophen-3-yl)-4-[4-(2-pyridin-2-yl-5,6-dihydro-4H-pyrrolo[1,2-b]pyrazol-3-yl)-quinolin-7-yl]-benzamide]",≤ 100
2,"O=[N+]([O-])c1ccc(-c2ccc3c(-c4c(-c5ccccn5)nn5c4CCC5)ccnc3c2)cc1 [Example 14, 7-(4-Nitrophenyl)-4-(2-pyridin-2-yl-5,6-dihydro-4H-pyrrolo[1,2-b]pyrazol-3-yl)quinoline Trifluoroacetic Acid]",≤ 100
3,"Nc1ccc(-c2ccc3c(-c4c(-c5ccccn5)nn5c4CCC5)ccnc3c2)cc1Cl [Example 90, 2-Chloro-4-[4-(2-pyridin-2-yl-5,6-dihydro-4H-pyrrolo[1,2-b]pyrazol-3-yl)-quinolin-7-yl]-phenylamine Ditrifluoroacetic Acid]",≤ 100
4,"Cc1csc(-c2ccc3c(-c4c(-c5ccccn5)nn5c4CCC5)ccnc3c2)c1 [Example 2, 7-(4-methylthiophen-2-yl)-4-(2-pyridin-2-yl-5,6-dihydro-4H-pyrrolo[1,2-b]pyrazol-3-yl)quinoline Trifluoroacetic Acid]",≤ 100
5,"FCCOc1ccc(-c2ccc3c(-c4c(-c5ccccn5)nn5c4CCC5)ccnc3c2)cc1 [Example 119, 7-[4-(2-Fluoroethoxy)phenyl]-4-(2-pyridin-2-yl-5,6-dihydro-4H-pyrrolo[1,2-b]pyrazol-3-yl)quinoline Trifluoroacetic Acid]",≤ 100
6,"c1ccc(-c2nn3c(c2-c2ccnc4cc(N5CCCCC5)ccc24)CCC3)nc1 [Example 103, 7-Piperidin-1-yl-4-(2-pyridin-2-yl-5,6-dihydro-4H-pyrrolo[1,2-b]pyrazol-3-yl)-quinoline]",≤ 1000
7,"c1ccc(-c2nn3c(c2-c2ccnc4cc(-c5ccc(OCCCN6CCCC6)cc5)ccc24)CCC3)nc1 [Example 115, 4-(2-Pyridin-2-yl-5,6-dihydro-4H-pyrrolo[1,2-b]pyrazol-3-yl)-7-[4-(3-pyrrolidin-1-yl-propoxy)phenyl] quinoline Ditrifluoroacetic Acid]",≤ 100
8,"5-[4-(2-pyridin-2-yl-5,6-dihydro-4H-pyrrolo[1,2-b]pyrazol-3-yl)-7-pyrimidin-5-yl-quinolin-7-yl]pyrimidin-2-ylamine Difluoroacetic Acid [Example 89]",≤ 1000
9,Oc1ccccc1-c1ccc2c(-c3c(-c4ccccn4)nn4c3CCC4)ccnc2c1 [Example 5],≤ 1000
10,"O=C(O)C(F)F.c1ccc(-c2nn3c(c2-c2ccnc4cc(-c5ncccn5)ccc24)CCC3)nc1 [Example 85, 4-(2-Pyridin-2-yl-5,6-dihydro-4H-pyrrolo[1,2-b]pyrazol-3-yl)-7-pyrimidin-2-yl-quinoline Difluoroacetic Acid]",≤ 1000
11,"Cc1cccc(-c2nn3c(c2-c2ccnc4cc(-c5ccc(C(=O)O)cc5)ccc24)CCC3)n1 [Example 57, 4-{4-[2-(6-Methyl-pyridin-2-yl)-5,6-dihydro-4H-pyrrolo[1,2-b]pyrazol-3-yl]-quinolin-7-yl}-benzoic acid]",≤ 100
12,"7-(3-Nitrophenyl)-4-(2-pyridin-2-yl-5,6-dihydro-4H-pyrrolo[1,2-b]pyrazol-3-yl)quinoline Trifluoroacetic Acid [Example 49]",≤ 100
13,"NS(=O)(=O)c1ccc(-c2ccc3c(-c4c(-c5ccccn5)nn5c4CCC5)ccnc3c2)cc1 [Example 95, 4-[4-(2-Pyridin-2-yl-5,6-dihydro-4H-pyrrolo[1,2-b]pyrazol-3-yl)-quinolin-7-yl]-benzenesulfonamide]",≤ 100
14,"NS(=O)(=O)c1ccccc1-c1ccc2c(-c3c(-c4ccccn4)nn4c3CCC4)ccnc2c1 [Example 97, 2-[4-(2-Pyridin-2-yl-5,6-dihydro-4H-pyrrolo[1,2-b]pyrazol-3-yl)-quinolin-7-yl]-benzenesulfonamide]",≤ 1000
15,"c1ccc(-c2nn3c(c2-c2ccnc4cc(-n5cncn5)ccc24)CCC3)nc1 [Example 99, 4-(2-Pyridin-2-yl-5,6-dihydro-4H-pyrrolo[1,2-b]pyrazol-3-yl)-7-[1,2,4]triazol-1-yl-quinoline ditrifluoroacetic Acid]",≤ 1000
16,"c1ccc(-c2ccc3c(-c4c(-c5ccccn5)nn5c4CCC5)ccnc3c2)nc1 [Example 68, 7-Pyridin-2-yl-4-(2-Pyridin-2-yl-5,6-dihydro-4H-pyrrolo[1,2-b]pyrazol-3-yl)quinoline Ditrifluoroacetic Acid]",≤ 100
17,"O=C(O)CCc1ccc(-c2ccc3c(-c4c(-c5ccccn5)nn5c4CCC5)ccnc3c2)cc1 [Example 30, 3-{4-[4-(2-Pyridin-2-yl-5,6-dihydro-4H-pyrrolo[1,2-b]pyrazol-3-yl)quinolin-7-yl]phenyl}propionic Acid Trifluoroacetic Acid]",≤ 100
18,"Cc1cccc(-c2nn3c(c2-c2ccnc4cc(-c5ccc(F)cc5)ccc24)CCC3)n1 [Example 59, 7-(4-Fluoro-phenyl)-4-[2-(6-methyl-pyridin-2-yl)-5,6-dihydro-4H-pyrrolo[1,2-b]pyrazol-3-yl]-quinoline]",≤ 100
19,"CSC[C@@H](NC(=O)c1ccc(-c2ccc3c(-c4c(-c5ccccn5)nn5c4CCC5)ccnc3c2)cc1)C(=O)OC(C)(C)C [Example 134, 3-Methylsulfanyl-2(S)-{4-[4-(2-pyridin-2-yl-5,6-dihydro-4H-pyrrolo[1,2-b]pyrazol-3-yl)-quinolin-7-yl]-benzoylamino}-propionic Acid tert-Butyl Ester]",≤ 1000
20,"CSC[C@@H](NC(=O)c1ccc(-c2ccc3c(-c4c(-c5ccccn5)nn5c4CCC5)ccnc3c2)cc1)C(=O)O [Example 145, 3-Methylsulfanyl-2(S)-{4-[4-(2-pyridin-2-yl-5,6-dihydro-4H-pyrrolo[1,2-b]pyrazol-3-yl)-quinolin-7-yl]-benzoylamino}-propionic Acid Trifluoroacetic Acid Salt]",≤ 100
21,"NCCCC[C@H](NC(=O)c1ccc(-c2ccc3c(-c4c(-c5ccccn5)nn5c4CCC5)ccnc3c2)cc1)C(=O)O [Example 143, 6-Amino-2(S)-{4-[4-(2-pyridin-2-yl-5,6-dihydro-4H-pyrrolo[1,2-b]pyrazol-3-yl)-quinolin-7-yl]-benzoylamino}-hexanoic acid, Ditrifluoroacetic Acid Salt]",≤ 100
22,"NC(=O)CNC(=O)c1ccc(-c2ccc3c(-c4c(-c5ccccn5)nn5c4CCC5)ccnc3c2)cc1 [Example 125, N-Carbamoylmethyl-4-[4-(2-pyridin-2-yl-5,6-dihydro-4H-pyrrolo[1,2-b]pyrazol-3-yl)-quinolin-7-yl]-benzamide]",≤ 100
23,"NC(=O)CCCc1ccc(-c2ccc3c(-c4c(-c5ccccn5)nn5c4CCC5)ccnc3c2)cc1 [Example 86, 4-{4-[4-(2-Pyridin-2-yl-5,6-dihydro-4H-pyrrolo[1,2-b]pyrazol-3-yl)quinolin-7-yl]phenyl}butyramide Trifluoroacetic Acid]",≤ 100
24,"NS(=O)(=O)c1cccc(-c2ccc3c(-c4c(-c5ccccn5)nn5c4CCC5)ccnc3c2)c1 [Example 96, 3-[4-(2-Pyridin-2-yl-5,6-dihydro-4H-pyrrolo[1,2-b]pyrazol-3-yl)-quinolin-7-yl]-benzenesulfonamide]",≤ 100
25,"CN(C)CCCOc1ccc(-c2ccc3c(-c4c(-c5ccccn5)nn5c4CCC5)ccnc3c2)cc1 [Example 113, Dimethyl-(3-{4-[4-(2-Pyridin-2-yl-5,6-dihydro-4H-pyrrolo[1,2-b]pyrazol-3-yl)quinolin-7-yl]phenoxy}propyl)amine Ditrifluoroacetic Acid]",≤ 100
26,"CCOc1ccc(-c2ccc3c(-c4c(-c5ccccn5)nn5c4CCC5)ccnc3c2)cc1 [Example 19, 7-(4-Ethoxyphenyl)-4-(2-pyridin-2-yl-5,6-dihydro-4H-pyrrolo[1,2-b]pyrazol-3-yl)quinoline Trifluoroacetic Acid]",≤ 100
27,"c1ccc(-c2nn3c(c2-c2ccnc4cc(-c5cc6ccccc6o5)ccc24)CCC3)nc1 [Example 48, 7-Benzofuran-2-yl-4-(2-pyridin-2-yl-5,6-dihydro-4H-pyrrolo[1,2-b]pyrazol-3-yl)quinoline Trifluoroacetic Acid]",≤ 100
28,"CNC(=O)c1ccc(-c2ccc3c(-c4c(-c5ccccn5)nn5c4CCC5)ccnc3c2)cc1 [Example 138, N-Methyl-4-[4-(2-pyridin-2-yl-5,6-dihydro-4H-pyrrolo[1,2-b]pyrazol-3-yl)-quinolin-7-yl]-benzamide]",≤ 100
29,"Cc1ccc(-c2ccc3c(-c4c(-c5ccccn5)nn5c4CCC5)ccnc3c2)cc1N [Example 33, 2-Methyl-5-[4-(2-Pyridin-2-yl-5,6-dihydro-4H-pyrrolo[1,2-b]pyrazol-3-yl)quinolin-7-yl]phenylamine Ditrifluoroacetic Acid]",≤ 100
